Activity calls are given as the source filed them.
Key:
[1] = molecular target: T1, DNA repair and recombination protein RAD54-like (Homo sapiens, UniProt Q92698); test: inhibitors of human RAD54 branch migration, confirmation, biochemical, fluorescence, cherry-picked samples, dose series (AID 651657); type: functional
T1 sequence (Q92698 whole entry): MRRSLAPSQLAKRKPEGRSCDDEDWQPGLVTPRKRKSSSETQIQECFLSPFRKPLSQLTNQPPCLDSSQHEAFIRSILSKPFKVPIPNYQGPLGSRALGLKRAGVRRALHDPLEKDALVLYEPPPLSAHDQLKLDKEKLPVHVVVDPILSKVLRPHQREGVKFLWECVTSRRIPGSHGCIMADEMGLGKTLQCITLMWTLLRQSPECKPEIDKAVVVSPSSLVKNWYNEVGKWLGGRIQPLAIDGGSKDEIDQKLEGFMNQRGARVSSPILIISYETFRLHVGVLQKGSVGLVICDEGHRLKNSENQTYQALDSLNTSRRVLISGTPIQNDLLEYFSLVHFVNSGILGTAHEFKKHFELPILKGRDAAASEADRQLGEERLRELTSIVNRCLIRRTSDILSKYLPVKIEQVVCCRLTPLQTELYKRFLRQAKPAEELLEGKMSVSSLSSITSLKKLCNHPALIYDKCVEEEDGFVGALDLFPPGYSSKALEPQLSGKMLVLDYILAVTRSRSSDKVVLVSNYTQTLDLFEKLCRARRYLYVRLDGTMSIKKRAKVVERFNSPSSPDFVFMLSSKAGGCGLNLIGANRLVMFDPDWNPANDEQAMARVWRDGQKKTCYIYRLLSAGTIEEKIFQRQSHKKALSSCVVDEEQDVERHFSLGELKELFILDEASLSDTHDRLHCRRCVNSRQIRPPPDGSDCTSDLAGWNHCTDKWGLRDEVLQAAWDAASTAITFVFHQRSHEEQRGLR

[2] = molecular target: T2, DNA repair protein RAD52 homolog (Homo sapiens, UniProt P43351); type: functional, biochemical
T2 sequence (P43351 whole entry): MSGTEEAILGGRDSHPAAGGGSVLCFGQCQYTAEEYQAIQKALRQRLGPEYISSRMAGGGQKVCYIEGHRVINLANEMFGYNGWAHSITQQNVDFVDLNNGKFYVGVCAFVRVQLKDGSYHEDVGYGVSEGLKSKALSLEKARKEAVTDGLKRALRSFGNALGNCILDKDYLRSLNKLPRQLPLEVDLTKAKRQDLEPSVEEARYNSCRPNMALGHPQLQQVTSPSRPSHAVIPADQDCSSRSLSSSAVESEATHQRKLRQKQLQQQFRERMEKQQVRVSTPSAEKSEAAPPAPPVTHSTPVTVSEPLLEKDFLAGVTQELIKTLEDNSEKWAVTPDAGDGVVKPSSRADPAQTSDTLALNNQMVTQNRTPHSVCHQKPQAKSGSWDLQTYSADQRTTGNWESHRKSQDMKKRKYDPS

[3] = molecular target: T3, Short transient receptor potential channel 4 (Mus musculus, UniProt Q9QUQ5); test: mouse TRPC4 channel inhibitors, dose response, cell-based, HEK293 TRPC4/mu-opioid, Fluo-4 calcium (AID 434942); type: functional;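 note: potency of inhibitors blocking the TRPC4 calcium response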
T3 sequence (Q9QUQ5 whole entry): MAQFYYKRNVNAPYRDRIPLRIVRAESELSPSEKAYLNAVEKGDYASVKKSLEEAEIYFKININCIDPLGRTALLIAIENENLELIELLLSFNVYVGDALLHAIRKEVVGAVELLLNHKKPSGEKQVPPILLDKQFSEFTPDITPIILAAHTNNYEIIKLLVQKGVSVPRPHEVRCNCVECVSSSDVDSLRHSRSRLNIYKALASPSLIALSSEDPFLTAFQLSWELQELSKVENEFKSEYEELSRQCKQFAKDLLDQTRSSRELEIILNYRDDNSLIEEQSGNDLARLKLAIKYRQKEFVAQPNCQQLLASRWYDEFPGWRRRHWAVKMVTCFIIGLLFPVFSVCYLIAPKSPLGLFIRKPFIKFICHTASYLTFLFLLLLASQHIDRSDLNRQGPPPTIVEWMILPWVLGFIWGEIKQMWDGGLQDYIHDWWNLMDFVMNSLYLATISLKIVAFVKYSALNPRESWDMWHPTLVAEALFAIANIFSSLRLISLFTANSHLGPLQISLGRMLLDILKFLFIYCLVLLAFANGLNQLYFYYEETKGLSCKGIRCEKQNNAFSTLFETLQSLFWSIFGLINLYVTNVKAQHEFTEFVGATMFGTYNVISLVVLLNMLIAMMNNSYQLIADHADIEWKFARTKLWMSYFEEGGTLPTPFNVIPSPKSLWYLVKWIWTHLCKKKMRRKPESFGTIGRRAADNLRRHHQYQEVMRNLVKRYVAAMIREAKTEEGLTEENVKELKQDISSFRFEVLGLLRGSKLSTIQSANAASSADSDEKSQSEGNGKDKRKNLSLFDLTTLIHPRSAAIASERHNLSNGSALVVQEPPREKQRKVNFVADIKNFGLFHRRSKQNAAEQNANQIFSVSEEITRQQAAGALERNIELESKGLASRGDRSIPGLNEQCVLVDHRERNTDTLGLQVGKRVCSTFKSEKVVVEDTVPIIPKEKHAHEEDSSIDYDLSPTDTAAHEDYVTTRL

[4] = molecular target: Nonstructural protein 1 (Influenza A virus, UniProt Q194T2); type: functional, Influenza A virus (A/California/07/2009(H1N1))
Chain of Nonstructural protein 1 (Q194T2 whole entry): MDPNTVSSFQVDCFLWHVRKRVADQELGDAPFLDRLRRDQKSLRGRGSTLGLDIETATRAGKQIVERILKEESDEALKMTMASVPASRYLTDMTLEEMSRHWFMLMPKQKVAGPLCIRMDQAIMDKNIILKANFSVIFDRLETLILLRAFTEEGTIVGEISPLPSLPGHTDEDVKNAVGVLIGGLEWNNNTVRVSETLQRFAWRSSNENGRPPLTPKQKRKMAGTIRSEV

[5] = system: INS1; test: beta cell apoptosis inhibitors, cytokine rescue, dose response, luminescence, retest (AID 449756); type: functional, cell-based; conditions: Rattus norvegicus;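 note: cell death triggered by IL-1 beta plus TNF-alpha plus IFN-gamma mixture; protective hits raise ATP signal compared with cytokine alone wells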
[6] = P. falciparum Dd2 growth inhibitors, dose response, SYBR Green, cherry-picked samples (AID 1159567); type: functional, cell-based
[7] = molecular target: T4, Protein skinhead-1 (Caenorhabditis elegans, UniProt P34707); type: functional
T4 sequence (P34707 whole entry): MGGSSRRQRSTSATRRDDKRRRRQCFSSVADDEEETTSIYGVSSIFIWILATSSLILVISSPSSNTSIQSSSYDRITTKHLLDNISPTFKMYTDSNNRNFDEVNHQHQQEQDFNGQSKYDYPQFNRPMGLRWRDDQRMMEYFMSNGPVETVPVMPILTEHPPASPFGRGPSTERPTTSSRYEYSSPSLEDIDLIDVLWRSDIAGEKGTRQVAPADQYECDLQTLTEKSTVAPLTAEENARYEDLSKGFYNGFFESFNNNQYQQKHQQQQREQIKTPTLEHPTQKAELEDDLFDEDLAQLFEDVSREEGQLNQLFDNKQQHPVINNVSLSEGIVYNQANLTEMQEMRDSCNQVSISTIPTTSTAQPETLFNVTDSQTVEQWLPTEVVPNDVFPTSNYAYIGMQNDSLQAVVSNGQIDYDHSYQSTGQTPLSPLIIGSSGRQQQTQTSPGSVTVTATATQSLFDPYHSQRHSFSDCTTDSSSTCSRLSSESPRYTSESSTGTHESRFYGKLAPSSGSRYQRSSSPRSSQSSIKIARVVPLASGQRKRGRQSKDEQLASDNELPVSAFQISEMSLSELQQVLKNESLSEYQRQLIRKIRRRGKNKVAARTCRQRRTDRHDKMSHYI

[8] = molecular target: Large T antigen (Simian virus 40, UniProt P03070); type: functional, Betapolyomavirus macacae;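 note: Confirmatory-stage PubChem screen for compounds that inhibit SV40 T antigen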
Chain of Large T antigen (P03070 whole entry): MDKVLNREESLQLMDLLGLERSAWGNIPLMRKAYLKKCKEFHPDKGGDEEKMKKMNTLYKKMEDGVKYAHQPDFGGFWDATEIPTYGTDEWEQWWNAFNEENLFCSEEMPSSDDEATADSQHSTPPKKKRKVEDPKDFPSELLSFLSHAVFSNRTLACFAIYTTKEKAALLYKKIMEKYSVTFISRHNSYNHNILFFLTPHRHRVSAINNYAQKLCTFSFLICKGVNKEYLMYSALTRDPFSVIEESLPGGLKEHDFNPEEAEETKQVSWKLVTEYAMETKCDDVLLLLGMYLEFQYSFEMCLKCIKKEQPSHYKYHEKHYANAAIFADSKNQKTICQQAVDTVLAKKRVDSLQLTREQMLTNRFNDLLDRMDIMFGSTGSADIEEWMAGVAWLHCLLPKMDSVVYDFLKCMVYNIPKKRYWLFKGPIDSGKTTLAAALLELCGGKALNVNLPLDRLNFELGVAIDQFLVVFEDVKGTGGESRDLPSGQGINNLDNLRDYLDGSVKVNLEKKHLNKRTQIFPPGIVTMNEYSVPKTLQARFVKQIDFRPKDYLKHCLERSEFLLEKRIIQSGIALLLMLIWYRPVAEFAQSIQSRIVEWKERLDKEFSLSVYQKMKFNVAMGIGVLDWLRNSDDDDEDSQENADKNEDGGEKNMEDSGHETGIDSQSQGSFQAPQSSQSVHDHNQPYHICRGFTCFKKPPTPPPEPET

[9] = molecular target: T5, Replicative DNA helicase DnaB (Mycobacterium tuberculosis, UniProt P9WMR3); test: DnaB intein splicing inhibitors, dose response, biochemical, cell-free fluorescence (AID 449749); type: functional
T5 sequence (P9WMR3 whole entry): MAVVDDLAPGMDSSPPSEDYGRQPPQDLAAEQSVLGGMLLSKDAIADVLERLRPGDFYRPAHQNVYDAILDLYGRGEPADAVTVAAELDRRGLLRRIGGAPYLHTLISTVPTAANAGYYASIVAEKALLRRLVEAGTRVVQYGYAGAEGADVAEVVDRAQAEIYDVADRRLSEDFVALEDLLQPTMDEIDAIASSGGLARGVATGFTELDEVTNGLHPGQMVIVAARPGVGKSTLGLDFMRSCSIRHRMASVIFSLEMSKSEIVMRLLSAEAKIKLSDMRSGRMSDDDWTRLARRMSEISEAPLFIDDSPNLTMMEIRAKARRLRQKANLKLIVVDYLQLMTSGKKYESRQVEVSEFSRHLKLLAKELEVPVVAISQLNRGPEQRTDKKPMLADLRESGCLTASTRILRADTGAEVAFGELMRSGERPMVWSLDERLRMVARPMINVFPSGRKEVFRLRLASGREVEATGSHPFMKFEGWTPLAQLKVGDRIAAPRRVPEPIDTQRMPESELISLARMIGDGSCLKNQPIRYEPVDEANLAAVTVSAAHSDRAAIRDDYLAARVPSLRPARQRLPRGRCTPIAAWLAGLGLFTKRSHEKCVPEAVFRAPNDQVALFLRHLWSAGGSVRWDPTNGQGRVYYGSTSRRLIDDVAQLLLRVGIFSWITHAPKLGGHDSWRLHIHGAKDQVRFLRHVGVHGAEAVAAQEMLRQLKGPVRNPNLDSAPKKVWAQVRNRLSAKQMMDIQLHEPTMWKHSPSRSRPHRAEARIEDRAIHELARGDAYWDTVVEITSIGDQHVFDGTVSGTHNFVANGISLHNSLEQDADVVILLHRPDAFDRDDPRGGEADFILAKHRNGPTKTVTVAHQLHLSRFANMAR

[10] = molecular target: T6, Protein RecA (Mycobacterium tuberculosis, UniProt P9WHJ3); test: Fluorescence Cell-Free Homogeneous Dose Retest to Identify Inhibitors of RecA-Intein Splicing Activity. [Related pubchem assays (depositor defined):AID2097, AID2223, AID489010, AID492950]; type: functional
T6 sequence (P9WHJ3 whole entry): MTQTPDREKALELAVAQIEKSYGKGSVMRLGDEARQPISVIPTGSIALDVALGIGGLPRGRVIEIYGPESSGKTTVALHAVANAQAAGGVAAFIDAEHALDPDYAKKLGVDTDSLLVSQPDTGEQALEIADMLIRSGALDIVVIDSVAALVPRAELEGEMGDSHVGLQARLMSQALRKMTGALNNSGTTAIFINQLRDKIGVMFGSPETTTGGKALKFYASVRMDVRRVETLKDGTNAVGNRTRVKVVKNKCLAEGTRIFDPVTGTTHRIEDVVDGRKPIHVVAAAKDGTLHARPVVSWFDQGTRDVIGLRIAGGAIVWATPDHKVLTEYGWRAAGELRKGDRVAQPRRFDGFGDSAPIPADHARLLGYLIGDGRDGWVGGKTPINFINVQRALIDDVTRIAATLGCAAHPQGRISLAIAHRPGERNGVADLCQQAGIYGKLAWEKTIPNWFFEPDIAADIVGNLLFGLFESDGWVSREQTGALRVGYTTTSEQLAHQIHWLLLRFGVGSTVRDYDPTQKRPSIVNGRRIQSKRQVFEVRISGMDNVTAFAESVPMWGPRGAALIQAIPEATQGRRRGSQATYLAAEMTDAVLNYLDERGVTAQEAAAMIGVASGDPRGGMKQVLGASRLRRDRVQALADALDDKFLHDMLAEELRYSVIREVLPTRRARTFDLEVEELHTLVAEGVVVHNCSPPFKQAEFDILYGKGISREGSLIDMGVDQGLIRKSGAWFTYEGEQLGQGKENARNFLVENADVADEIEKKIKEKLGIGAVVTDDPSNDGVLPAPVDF

[11] = molecular target: T7, Ubiquitin-conjugating enzyme E2 N (Homo sapiens, UniProt P61088); type: functional;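 note: Dose-response confirmation in a TR-FRET assay detecting UBC13-driven polyubiquitin chain formation, inhibition measured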
T7 sequence (P61088 whole entry): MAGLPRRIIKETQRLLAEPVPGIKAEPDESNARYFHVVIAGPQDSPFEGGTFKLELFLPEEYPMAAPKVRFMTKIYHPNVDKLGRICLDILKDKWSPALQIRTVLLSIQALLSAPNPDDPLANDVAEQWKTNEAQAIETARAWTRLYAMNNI

[12] = molecular target: Heat shock protein HSP 90-alpha (Homo sapiens, UniProt P07900); type: functional, organism-based

## CN(C)CCNC(=O)c1cccc(-c2cnc3c(NC=O)cc(-c4ccc(S(C)(=O)=O)cc4)cn23)c1
[1]
  AC50: 24.1 µM (active)
[2]
  AC50: 5.29 µM (active)

## COc1ccc(Nc2cc(C)nc3ccc(OC)cc23)cc1
[1]
  AC50: 20.5 µM (active)
[3]
  EC50: 4.73 µM (active)
[2]
  AC50: 15 µM (active)

## Nc1nonc1-n1nnc(C(=O)N/N=C/c2ccccc2O)c1CN1CCCC1
[4]
  IC50: 11.4 µM (active)
[5]
  AC50: 5.79 µM (active)

## O=C(C[C@H]1CC[C@@H]2[C@H](COC[C@H](O)CN2Cc2cc(F)ccc2F)O1)N[C@@H]1CCN(Cc2ccccc2)C1
[6]
  AC50: 7.42 µM (active)

## CC(=O)N1/C(=C/c2ccc(N(C)C)cc2)C(=O)c2ccccc21
[7]
  IC50: 76.9 µM (inactive)
[4]
  IC50: 16.7 µM (active)

## COc1cc2c(cc1OC)-c1cc3ccc(OC)c(OC)c3c[n+]1CC2 [PALMATINE CHLORIDE]
[2]
  AC50: 5.19 µM (active)

## CN1c2ccc(-c3ccccc3)cc2[C@@H]2[C@@H](CCN2C(=O)c2ccccc2)[C@H]1CO
[6]
  AC50: 8.29 µM (active)

## CN1CCN(c2nc(Nc3ccc(O)cc3)nc3ccccc23)CC1
[8]
  IC50: 8.58 µM (active)
[2]
  AC50: 5.21 µM (active)

## N#CCCN(C(=O)CCl)c1cccc(Cl)c1
[9]
  AC50: 78.4 µM (active)
[10]
  EC50: 8.64 µM (active)

## CN(C)c1ccc(NC(=O)CN2CCC(NC(=O)C3CCCCC3)CC2)cc1
[2]
  AC50: 14.8 µM (active)
[11]
  IC50: > 20 µM (inactive)

## O=C(CSc1n[nH]c(-c2ccccn2)n1)Nc1ccccc1F
[4]
  IC50: 7.23 µM (active)

## O=C(NN=Cc1cccc([N+](=O)[O-])c1)c1cc[n+](CCO)cc1
[2]
  AC50: 14.1 µM (active)

## N#CC1=C(N)Oc2[nH]nc(-c3ccc(F)cc3)c2C1c1cccc(OC(=O)N2CCOCC2)c1 (stereo not drawn)
[9]
  AC50: 6.74 µM (active)
[10]
  EC50: 1.29 µM (active)

## CCOc1ccccc1-c1c2cc(O)c(=O)cc-2oc2cc(O)c(O)cc12
[12]
  AC50: 6.24 µM (active)
[4]
  IC50: 28.1 µM (active)

## Cc1ccc(-n2nc(C)c3c2OC(N)=C(C#N)C3c2ccoc2)cc1 (stereo not drawn)
[9]
  AC50: 5.41 µM (active)
[10]
  EC50: 2.56 µM (active)

## c1cncc(CNc2ncnc3sc4c(c23)CCCC4)c1
[9]
  AC50: > 380 µM (inactive)
[10]
  EC50: > 380 µM (inactive)

— ChEMBL document CHEMBL1201862, “PubChem BioAssay data set” (2004)
